According to patent publication US10954228B2 (NATIONAL INSTITUTES OF HEALTH, UNITED STATES DEPARTMENT OF …, priority 2016, dated 2021):

Biological target: Human LDHA (Homo sapiens (Human), UniProt P00338)
Test: human LDHA primary biochemical assay
Conditions: biochemical LDHA inhibitory activity, assay of Example 1; activity level classes defined in nM
Source text: This example describes a human LDHA primary biochemical assay employed in the characterization of a compound of formula (I) in an embodiment of the invention.
Test compounds were placed in a Greiner Bio-One (Monroe, N.C.) 1536-well black solid bottom assay plate. 200 millimolar (mM) Tris HCl, pH 7.4, 100 micromolar (μM) EDTA and 0.01% TWEEN-20™, final concentration, was used as the assay buffer. The LDHA reagent was 2 nanomolar (nM) Human LDHA (Meridian Life Science, Inc., Memphis, Tenn.), final concentration, in assay buffer. The substrate reagent was 0.06 mM NADH and 0.2 mM sodium pyruvate, final concentration, in assay buffer. The resazurin/diaphorase coupling reagent was 0.037 mM resazurin and 0.133 milligrams per milliliter (mg/mL) diaphorase, final concentration, in assay buffer. The inhibition of LDHA activity was measured by fluorescence emission.

| Structure (SMILES) | IC50 [nM] |
| --- | --- |
| NS(=O)(=O)c1ccc(Cc2c(-c3cccc(-c4ccc(C5CC5)cc4)c3)nn(-c3nc(C(=O)O)cs3)c2CC2CC2)cc1F [Compound 222, 2-(3-(4′-cyclopropyl-[1,1′-biphenyl]-3-yl)-5-(cyclopropylmethyl)-4-(3-fluoro-4-sulfamoylbenzyl)-1H-pyrazol-1-yl)thiazole-4-carboxylic acid] | 100 to 1000 |
| CCc1cc(-c2cc(-c3nn(-c4nc(C(=O)O)cs4)c(CC4CC4)c3Cc3ccc(S(N)(=O)=O)c(F)c3)ccc2F)ccc1OC [Compound 223, 2-(5-(cyclopropylmethyl)-3-(3′-ethyl-6-fluoro-4′-methoxy-[1,1′-biphenyl]-3-yl)-4-(3-fluoro-4-sulfamoylbenzyl)-1H-pyrazol-1-yl)thiazole-4-carboxylic acid] | 100 to 1000 |
| NS(=O)(=O)c1ccc(Cc2c(-c3cccc(-c4ccc(C(F)(F)C(F)(F)F)cc4)c3)nn(-c3nc(C(=O)O)cs3)c2CC2CC2)cc1F [Compound 224, 2-(5-(cyclopropylmethyl)-4-(3-fluoro-4-sulfamoylbenzyl)-3-(4′-(perfluoroethyl)-[1,1′-biphenyl]-3-yl)-1H-pyrazol-1-yl)thiazole-4-carboxylic acid] | 100 to 1000 |
| NS(=O)(=O)c1ccc(Cc2c(-c3ccc(F)c(-c4ccc(C(F)(F)C(F)(F)F)cc4)c3)nn(-c3nc(C(=O)O)cs3)c2CC2CC2)cc1F [Compound 225, 2-(5-(cyclopropylmethyl)-3-(6-fluoro-4′-(perfluoroethyl)-[1,1′-biphenyl]-3-yl)-4-(3-fluoro-4-sulfamoylbenzyl)-1H-pyrazol-1-yl)thiazole-4-carboxylic acid] | 100 to 1000 |
| CC(C)Cc1ccc(-c2cccc(-c3nn(-c4nc(C(=O)O)cs4)c(CC4CC4)c3Cc3ccc(S(N)(=O)=O)c(F)c3)c2)cc1 [Compound 226, 2-(5-(cyclopropylmethyl)-4-(3-fluoro-4-sulfamoylbenzyl)-3-(4′-isobutyl-[1,1′-biphenyl]-3-yl)-1H-pyrazol-1-yl)thiazole-4-carboxylic acid] | 100 to 1000 |
| CC(C)Cc1ccc(-c2cc(-c3nn(-c4nc(C(=O)O)cs4)c(CC4CC4)c3Cc3ccc(S(N)(=O)=O)c(F)c3)ccc2F)cc1 [Compound 227, 2-(5-(cyclopropylmethyl)-3-(6-fluoro-4′-isobutyl-[1,1′-biphenyl]-3-yl)-4-(3-fluoro-4-sulfamoylbenzyl)-1H-pyrazol-1-yl)thiazole-4-carboxylic acid] | 100 to 1000 |
| CC(C)c1ccc(-c2cccc(-c3nn(-c4nc(C(=O)O)cs4)c(CC4CC4)c3Cc3ccc(S(N)(=O)=O)c(F)c3)c2)cc1F [Compound 230, 2-(5-(cyclopropylmethyl)-3-(3′-fluoro-4′-isopropyl-[1,1′-biphenyl]-3-yl)-4-(3-fluoro-4-sulfamoylbenzyl)-1H-pyrazol-1-yl)thiazole-4-carboxylic acid] | 100 to 1000 |
| Cc1ccc(C#Cc2ccc(-c3nn(-c4nc(C(=O)O)cs4)c(CC4CC4)c3Cc3ccc(S(N)(=O)=O)c(F)c3)s2)s1 [Compound 233, 2-(5-(cyclopropylmethyl)-4-(3-fluoro-4-sulfamoylbenzyl)-3-(5-((5-methylthiophen-2-yl)ethynyl)thiophen-2-yl)-1H-pyrazol-1-yl)thiazole-4-carboxylic acid] | 100 to 1000 |
| Cc1nc(C#Cc2cccc(-c3nn(-c4nc(C(=O)O)cs4)c(CC4CC4)c3Cc3ccc(S(N)(=O)=O)c(F)c3)c2)cs1 [Compound 236, 2-(5-(cyclopropylmethyl)-4-(3-fluoro-4-sulfamoylbenzyl)-3-(3-((2-methylthiazol-4-yl)ethynyl)phenyl)-1H-pyrazol-1-yl)thiazole-4-carboxylic acid] | < 100 |
| Cc1ccc(C#Cc2csc(-c3nn(-c4nc(C(=O)O)cs4)c(CC4CC4)c3Cc3ccc(S(N)(=O)=O)c(F)c3)c2)s1 [Compound 237, 2-(5-(cyclopropylmethyl)-4-(3-fluoro-4-sulfamoylbenzyl)-3-(4-((5-methylthiophen-2-yl)ethynyl)thiophen-2-yl)-1H-pyrazol-1-yl)thiazole-4-carboxylic acid] | 100 to 1000 |
| Cc1cc(C#Cc2cccc(-c3nn(-c4nc(C(=O)O)cs4)c(CCC4CC4)c3Cc3ccc(S(N)(=O)=O)c(F)c3)c2)c(C)s1 [Compound 238, 2-(5-(2-cyclopropylethyl)-3-(3-((2,5-dimethylthiophen-3-yl)ethynyl)phenyl)-4-(3-fluoro-4-sulfamoylbenzyl)-1H-pyrazol-1-yl)thiazole-4-carboxylic acid] | 100 to 1000 |
| Cc1cc(C#Cc2cccc(-c3nn(-c4nc(C(=O)O)cs4)c(CCC4CC4)c3Cc3ccc(S(N)(=O)=O)c(F)c3)c2)cs1 [Compound 239, 2-(5-(2-cyclopropylethyl)-4-(3-fluoro-4-sulfamoylbenzyl)-3-(3-((5-methylthiophen-3-yl)ethynyl)phenyl)-1H-pyrazol-1-yl)thiazole-4-carboxylic acid] | 100 to 1000 |
| Cc1cc(C#Cc2cccc(-c3nn(-c4nc(C(=O)O)cs4)c(CC4CC4)c3Cc3ccc(S(N)(=O)=O)c(F)c3)c2)cs1 [Compound 240, 2-(5-(cyclopropylmethyl)-4-(3-fluoro-4-sulfamoylbenzyl)-3-(3-((5-methylthiophen-3-yl)ethynyl)phenyl)-1H-pyrazol-1-yl)thiazole-4-carboxylic acid] | < 100 |
| Cc1cc(C#Cc2cccc(-c3nn(-c4nc(C(=O)O)cs4)c(CC4CC4)c3Cc3ccc(S(N)(=O)=O)c(F)c3)c2)c(C)s1 [Compound 241, 2-(5-(cyclopropylmethyl)-3-(3-((2,5-dimethylthiophen-3-yl)ethynyl)phenyl)-4-(3-fluoro-4-sulfamoylbenzyl)-1H-pyrazol-1-yl)thiazole-4-carboxylic acid] | 100 to 1000 |
| Cc1ccc(C(=O)Cc2cccc(-c3nn(-c4nc(C(=O)O)cs4)c(CC4CC4)c3Cc3ccc(S(N)(=O)=O)c(F)c3)c2)s1 [Compound 242, 2-(5-(cyclopropylmethyl)-4-(3-fluoro-4-sulfamoylbenzyl)-3-(3-(2-(5-methylthiophen-2-yl)-2-oxoethyl)phenyl)-1H-pyrazol-1-yl)thiazole-4-carboxylic acid] | < 100 |
| Cc1nc(C#Cc2cccc(-c3nn(-c4nc(C(=O)O)cs4)c(CCC4CC4)c3Cc3ccc(S(N)(=O)=O)c(F)c3)c2)cs1 [Compound 243, 2-(5-(2-cyclopropylethyl)-4-(3-fluoro-4-sulfamoylbenzyl)-3-(3-((2-methylthiazol-4-yl)ethynyl)phenyl)-1H-pyrazol-1-yl)thiazole-4-carboxylic acid] | < 100 |

Results, then the molecule that gave them:

| IC50 [nM] | Structure (SMILES) |
| --- | --- |
| < 100 | Cc1cnc(-c2cccc(-c3nn(-c4nc(C(=O)O)cs4)c(CC4CC4)c3Cc3ccc(S(N)(=O)=O)c(F)c3)c2)nc1 [Compound 217] |
| < 100 | NS(=O)(=O)c1ccc(Cc2c(-c3cccc(-c4ccc(C(F)(F)F)cc4)c3)nn(-c3nc(C(=O)O)cs3)c2CC2CC2)cc1F [Compound 219, 2-(5-(cyclopropylmethyl)-4-(3-fluoro-4-sulfamoylbenzyl)-3-(4′-(trifluoromethyl)-[1,1′-biphenyl]-3-yl)-1H-pyrazol-1-yl)thiazole-4-carboxylic acid] |
| < 100 | NS(=O)(=O)c1ccc(Cc2c(-c3cccc(-c4ccc5c(c4)CCC5)c3)nn(-c3nc(C(=O)O)cs3)c2CC2CC2)cc1F [Compound 220, 2-(5-(cyclopropylmethyl)-3-(3-(2,3-dihydro-1H-inden-5-yl)phenyl)-4-(3-fluoro-4-sulfamoylbenzyl)-1H-pyrazol-1-yl)thiazole-4-carboxylic acid] |
| < 100 | Cc1cc(-c2cccc(-c3nn(-c4nc(C(=O)O)cs4)c(CC4CC4)c3Cc3ccc(S(N)(=O)=O)c(F)c3)c2)ccc1O [Compound 228, 2-(5-(cyclopropylmethyl)-4-(3-fluoro-4-sulfamoylbenzyl)-3-(4′-hydroxy-3′-methyl-[1,1′-biphenyl]-3-yl)-1H-pyrazol-1-yl)thiazole-4-carboxylic acid] |
| < 100 | NS(=O)(=O)c1ccc(Cc2c(-c3cccc(-c4ccc(O)c(F)c4)c3)nn(-c3nc(C(=O)O)cs3)c2CC2CC2)cc1F [Compound 229, 2-(5-(cyclopropylmethyl)-3-(3′-fluoro-4′-hydroxy-[1,1′-biphenyl]-3-yl)-4-(3-fluoro-4-sulfamoylbenzyl)-1H-pyrazol-1-yl)thiazole-4-carboxylic acid] |
| < 100 | Cc1ccc(C#Cc2cccc(-c3nn(-c4nc(C(=O)O)cs4)c(CC4CC4)c3Cc3ccc(S(N)(=O)=O)c(F)c3)n2)s1 [Compound 231, 2-(5-(cyclopropylmethyl)-4-(3-fluoro-4-sulfamoylbenzyl)-3-(6-((5-methylthiophen-2-yl)ethynyl)pyridin-2-yl)-1H-pyrazol-1-yl)thiazole-4-carboxylic acid] |
| < 100 | Cc1ccc(C#Cc2cccc(-c3nn(-c4nc(C(=O)O)cs4)c(CCC4CC4)c3Cc3ccc(S(N)(=O)=O)c(F)c3)c2)o1 [Compound 232, 2-(5-(2-cyclopropylethyl)-4-(3-fluoro-4-sulfamoylbenzyl)-3-(3-((5-methylfuran-2-yl)ethynyl)phenyl)-1H-pyrazol-1-yl)thiazole-4-carboxylic acid] |
| < 100 | Cc1cnc(C#Cc2cccc(-c3nn(-c4nc(C(=O)O)cs4)c(CCC4CC4)c3Cc3ccc(S(N)(=O)=O)c(F)c3)c2)s1 [Compound 234, 2-(5-(2-cyclopropylethyl)-4-(3-fluoro-4-sulfamoylbenzyl)-3-(3-((5-methylthiazol-2-yl)ethynyl)phenyl)-1H-pyrazol-1-yl)thiazole-4-carboxylic acid] |
| < 100 | Cc1ncc(C#Cc2cccc(-c3nn(-c4nc(C(=O)O)cs4)c(CCC4CC4)c3Cc3ccc(S(N)(=O)=O)c(F)c3)c2)s1 [Compound 235, 2-(5-(2-cyclopropylethyl)-4-(3-fluoro-4-sulfamoylbenzyl)-3-(3-((2-methylthiazol-5-yl)ethynyl)phenyl)-1H-pyrazol-1-yl)thiazole-4-carboxylic acid] |
